Measurements as given in PubChem BioAssay AID1963849 (Molecular Pharmacology Branch, DTP, NCI, 2024).

System: 299254-011-R-J1-PDC complex spheroid viability
Experiment: Anticancer human tumor 299254-011-R-J1-PDC patient-derived melanoma cell line growth inhibition [POLQ]
Conditions: for IC50: curve of first compound; for viability, T/C: stronger effect = lower value
Outline: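 PDC + HUVEC + MSC complex spheroids; POLQ inhibitors ± partner drugs; top conc. at/near clinical Cmax, else 10 microM (SN-38 1 microM), half-log dilutions; 37 degrees C, 5% CO2.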

[1] = second compound 0.0316 µM, first compound 0.00316 µM
[2] = second compound 0.0316 µM, first compound 0.01 µM
[3] = second compound 0.0316 µM, first compound 0.0316 µM
[4] = second compound 0.0316 µM, first compound 0.1 µM
[5] = second compound 0.0316 µM, first compound 0.316 µM
[6] = second compound 0.0316 µM, first compound 1 µM
[7] = second compound 0.1 µM, first compound 0.00316 µM
[8] = second compound 0.1 µM, first compound 0.01 µM
[9] = second compound 0.1 µM, first compound 0.0316 µM
[10] = second compound 0.1 µM, first compound 0.1 µM
[11] = second compound 0.1 µM, first compound 0.316 µM
[12] = second compound 0.1 µM, first compound 1 µM
[13] = second compound 0.316 µM, first compound 0.00316 µM
[14] = second compound 0.316 µM, first compound 0.01 µM
[15] = second compound 0.316 µM, first compound 0.0316 µM
[16] = second compound 0.316 µM, first compound 0.1 µM
[17] = second compound 0.316 µM, first compound 0.316 µM
[18] = second compound 0.316 µM, first compound 1 µM
[19] = second compound 1 µM, first compound 0.00316 µM
[20] = second compound 1 µM, first compound 0.01 µM
[21] = second compound 1 µM, first compound 0.0316 µM
[22] = second compound 1 µM, first compound 0.1 µM
[23] = second compound 1 µM, first compound 0.316 µM
[24] = second compound 1 µM, first compound 1 µM
[25] = second compound 3.16 µM, first compound 0.00316 µM
[26] = second compound 3.16 µM, first compound 0.01 µM
[27] = second compound 3.16 µM, first compound 0.0316 µM
[28] = second compound 3.16 µM, first compound 0.1 µM
[29] = second compound 3.16 µM, first compound 0.316 µM
[30] = second compound 3.16 µM, first compound 1 µM
[31] = second compound 10 µM, first compound 0.00316 µM
[32] = second compound 10 µM, first compound 0.01 µM
[33] = second compound 10 µM, first compound 0.0316 µM
[34] = second compound 10 µM, first compound 0.1 µM
[35] = second compound 10 µM, first compound 0.316 µM
[36] = second compound 10 µM, first compound 1 µM
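Note: spheroids exposed to drugs for one week before measurement.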
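Throughout, for viability, T/C: percent viability relative to DMSO vehicle control taken as 100%.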

C=CCn1c(=O)c2cnc(Nc3ccc(N4CCN(C)CC4)cc3)nc2n1-c1cccc(C(C)(C)O)n1 + Cc1cccc(N(C)C(=O)C2C(O)CCN2c2nc(C)cc(C(F)(F)F)c2C#N)c1
IC50 (second compound 0.0316 µM): > 1 µM
IC50 (second compound 0.1 µM): > 1 µM
IC50 (second compound 0.316 µM): > 1 µM
IC50 (second compound 1 µM): > 1 µM
IC50 (second compound 3.16 µM): > 1 µM
IC50 (second compound 10 µM): > 1 µM
viability, T/C [1]: 98.3%
viability, T/C [2]: 119%
viability, T/C [3]: 96%
viability, T/C [4]: 116%
viability, T/C [5]: 103%
viability, T/C [6]: 62.1%
viability, T/C [7]: 101%
viability, T/C [8]: 103%
viability, T/C [9]: 106%
viability, T/C [10]: 103%
viability, T/C [11]: 90.2%
viability, T/C [12]: 67.4%
viability, T/C [13]: 111%
viability, T/C [14]: 108%
viability, T/C [15]: 99.7%
viability, T/C [16]: 108%
viability, T/C [17]: 108%
viability, T/C [18]: 64.2%
viability, T/C [19]: 117%
viability, T/C [20]: 98.6%
viability, T/C [21]: 110%
viability, T/C [22]: 99.8%
viability, T/C [23]: 90.5%
viability, T/C [24]: 57.8%
viability, T/C [25]: 104%
viability, T/C [26]: 102%
viability, T/C [27]: 113%
viability, T/C [28]: 103%
viability, T/C [29]: 97.2%
viability, T/C [30]: 67%
viability, T/C [31]: 105%
viability, T/C [32]: 109%
viability, T/C [33]: 89.4%
viability, T/C [34]: 96.5%
viability, T/C [35]: 88.2%
viability, T/C [36]: 59.3%

CC[C@@]1(O)C(=O)OCc2c1cc1n(c2=O)Cc2cc3c(CN(C)C)c(O)ccc3nc2-1 + Cc1cccc(N(C)C(=O)C2C(O)CCN2c2nc(C)cc(C(F)(F)F)c2C#N)c1
IC50 (second compound 0.0316 µM): > 0.1 µM
IC50 (second compound 0.1 µM): > 0.1 µM
IC50 (second compound 0.316 µM): > 0.1 µM
IC50 (second compound 1 µM): > 0.1 µM
IC50 (second compound 3.16 µM): > 0.1 µM
IC50 (second compound 10 µM): > 0.1 µM
viability, T/C (second compound 0.0316 µM, first compound 0.000316 µM): 101%
viability, T/C (second compound 0.0316 µM, first compound 0.001 µM): 100%
viability, T/C [1]: 95.6%
viability, T/C [2]: 104%
viability, T/C [3]: 117%
viability, T/C [4]: 81%
viability, T/C (second compound 0.1 µM, first compound 0.000316 µM): 104%
viability, T/C (second compound 0.1 µM, first compound 0.001 µM): 98.6%
viability, T/C [7]: 97%
viability, T/C [8]: 113%
viability, T/C [9]: 113%
viability, T/C [10]: 84.1%
viability, T/C (second compound 0.316 µM, first compound 0.000316 µM): 110%
viability, T/C (second compound 0.316 µM, first compound 0.001 µM): 115%
viability, T/C [13]: 103%
viability, T/C [14]: 120%
viability, T/C [15]: 116%
viability, T/C [16]: 80.9%
viability, T/C (second compound 1 µM, first compound 0.000316 µM): 111%
viability, T/C (second compound 1 µM, first compound 0.001 µM): 112%
viability, T/C [19]: 100%
viability, T/C [20]: 123%
viability, T/C [21]: 99.2%
viability, T/C [22]: 90.5%
viability, T/C (second compound 3.16 µM, first compound 0.000316 µM): 108%
viability, T/C (second compound 3.16 µM, first compound 0.001 µM): 115%
viability, T/C [25]: 89.1%
viability, T/C [26]: 106%
viability, T/C [27]: 119%
viability, T/C [28]: 89.6%
viability, T/C (second compound 10 µM, first compound 0.000316 µM): 94.9%
viability, T/C (second compound 10 µM, first compound 0.001 µM): 102%
viability, T/C [31]: 90.8%
viability, T/C [32]: 97%
viability, T/C [33]: 95.3%
viability, T/C [34]: 69.7%

CCc1c2c(nc3ccc(O)cc13)-c1cc3c(c(=O)n1C2)COC(=O)[C@]3(O)CC + Cc1cccc(N(C)C(=O)C2C(O)CCN2c2nc(C)cc(C(F)(F)F)c2C#N)c1
IC50 (second compound 0.0316 µM): > 1 µM
IC50 (second compound 0.1 µM): > 1 µM
IC50 (second compound 0.316 µM): > 1 µM
IC50 (second compound 1 µM): > 1 µM
IC50 (second compound 3.16 µM): > 1 µM
IC50 (second compound 10 µM): > 1 µM
viability, T/C [1]: 95.9%
viability, T/C [2]: 79.2%
viability, T/C [3]: 72.9%
viability, T/C [4]: 67.8%
viability, T/C [5]: 62.5%
viability, T/C [6]: 53.7%
viability, T/C [7]: 92.8%
viability, T/C [8]: 95.7%
viability, T/C [9]: 65.3%
viability, T/C [10]: 67.6%
viability, T/C [11]: 72.8%
viability, T/C [12]: 56.4%
viability, T/C [13]: 104%
viability, T/C [14]: 86.3%
viability, T/C [15]: 75.3%
viability, T/C [16]: 76.2%
viability, T/C [17]: 56.7%
viability, T/C [18]: 53%
viability, T/C [19]: 111%
viability, T/C [20]: 88.5%
viability, T/C [21]: 75.1%
viability, T/C [22]: 64.7%
viability, T/C [23]: 68.6%
viability, T/C [24]: 49.6%
viability, T/C [25]: 112%
viability, T/C [26]: 79%
viability, T/C [27]: 72.1%
viability, T/C [28]: 64.8%
viability, T/C [29]: 71.6%
viability, T/C [30]: 60%
viability, T/C [31]: 88.6%
viability, T/C [32]: 69.3%
viability, T/C [33]: 57.9%
viability, T/C [34]: 81.5%
viability, T/C [35]: 60.1%
viability, T/C [36]: 49.7%
